# Measurements published in patent US20140081017A1, “Histone Deacetylase Inhibitors for Enhancing Activity of Antifungal Agents” (METHYLGENE INC., priority 2012, published 2014).
# Read-outs that look alike come from different tables or passages of the source.
# Columns and labels:
# Candida parapsilosis [1] = assay: Minimal Inhibitory Concentration (MIC) assay, broth microdilution per CLSI; assay type: cell-based; conditions: Lodderomyces parapsilosis, read-out: Minimum Inhibitory Concentrations against Yeast Isolates, Candida parapsilosis;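 note: two read times 24 hr and 48 hr of incubation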
# Summary of the method: (§1)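 CLSI broth microdilution in RPMI with 0.165 M MOPS, pH 7.0, inoculum from 0.5 McFarland suspension diluted 1:100; compounds in DMSO. Incubation at 35°C for about 24-48 hr; MIC is lowest concentration without visible growth, fluconazole at prominent decrease in growth.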
# Candida glabrata = assay: as above; assay type: cell-based; conditions: Nakaseomyces glabratus, read-out: Minimum Inhibitory Concentrations against Yeast Isolates, Candida glabrata;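 note: two read times 24 hr and 48 hr of incubation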
# Summary of the method: as §1
# Candida albicans [2] = assay: as above; assay type: cell-based; conditions: Candida albicans, read-out: Minimum Inhibitory Concentrations against Yeast Isolates, Candida albicans
# Summary of the method: as §1
# C. glabrata [3] = assay: Checkerboard FIC assay in combination with fluconazole (MIC alone and in combination, FICI); assay type: cell-based, Candida glabrata; conditions: for FICI of combination resulting in fluconazole MIC of: 2 ug/mL / FICI of combination resulting in fluconazole MIC of: 4 ug/mL / FICI of combination resulting in fluconazole MIC of: 8 ug/mL: FICI calculated using a fluconazole MIC of 16 μg/mL; for FICI of combination resulting in fluconazole MIC of: 2 ug/mL (value in parenthesis) / FICI of combination resulting in fluconazole MIC of: 4 ug/mL (value in parenthesis) / FICI of combination resulting in fluconazole MIC of: 8 ug/mL (value in parenthesis): FICI using a fluconazole MIC of 128 μg/mL; for MIC: Nakaseomyces glabratus; for Multiple of compound MIC to synergize fluconazole MIC to 2 ug/mL / Multiple of compound MIC to synergize fluconazole MIC to 4 ug/mL / Multiple of compound MIC to synergize fluconazole MIC to 8 ug/mL: concentration in combination as multiple of the compound's MIC alone; for Multiple of compound MIC to synergize fluconazole MIC to 2 ug/mL: fluconazole MIC 2 ug/mL; for Multiple of compound MIC to synergize fluconazole MIC to 4 ug/mL: fluconazole MIC 4 ug/mL; for Multiple of compound MIC to synergize fluconazole MIC to 8 ug/mL: fluconazole MIC 8 ug/mL; for Concentration of Methylgene compound to synergize fluconazole MIC to 2 ug/mL / Concentration of Methylgene compound to synergize fluconazole MIC to 4 ug/mL / Concentration of Methylgene compound to synergize fluconazole MIC to 8 ug/mL: in combination with fluconazole; for Concentration of Methylgene compound to synergize fluconazole MIC to 2 ug/mL: fluconazole MIC lowered to 2 ug/mL; for Concentration of Methylgene compound to synergize fluconazole MIC to 4 ug/mL: fluconazole MIC lowered to 4 ug/mL; for Concentration of Methylgene compound to synergize fluconazole MIC to 8 ug/mL: fluconazole MIC lowered to 8 ug/mL
# Summary of the method: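 C. glabrata was tested by CLSI broth microdilution checkerboard, crossing 2-fold dilutions of compound with 2-fold dilutions of fluconazole. The medium was RPMI with 0.165 M MOPS at pH 7.0, inoculated from a 0.5 McFarland suspension diluted 1:100, then incubated about 48 h at 35 °C. Single-agent MICs gave the FIC and FICI values.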
# C. glabrata [4] = conditions: based on a prior study / previously observed; cited from earlier work
# Candida parapsilosis [5] = conditions: range not explained, cited from earlier work
# Candida albicans [6] = conditions: 48 hr; range not explained; cited from earlier work
# [7] = 24 hr reading (first value of cell 24 hr/48 hr)
# [8] = 48 hr reading (second value of cell 24 hr/48 hr)
# [9] = MIC of the example compound alone against C. glabrata in the checkerboard assay, approximately 48 hr, read-out: Methylgene MIC
# [10] = test compound alone, C. glabrata, approx. 48 hr at 35° C., read-out: Compound MIC
# 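Throughout, for Minimum Inhibitory Concentrations against Yeast Isolates, Candida albicans: two read times 24 hr and 48 hr of incubation.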
SMILES,MIC (Candida parapsilosis [1]; [7]) [µg/mL],MIC (Candida parapsilosis [1]; [8]) [µg/mL],MIC (Candida glabrata; [7]) [µg/mL],MIC (Candida glabrata; [8]) [µg/mL],MIC (Candida albicans [2]; [7]) [µg/mL],MIC (Candida albicans [2]; [8]) [µg/mL],FICI of combination resulting in fluconazole MIC of: 2 ug/mL (C. glabrata [3]; C. glabrata),FICI of combination resulting in fluconazole MIC of: 4 ug/mL (C. glabrata [3]; C. glabrata),FICI of combination resulting in fluconazole MIC of: 8 ug/mL (C. glabrata [3]; C. glabrata),FICI of combination resulting in fluconazole MIC of: 2 ug/mL (value in parenthesis) (C. glabrata [3]; C. glabrata),FICI of combination resulting in fluconazole MIC of: 4 ug/mL (value in parenthesis) (C. glabrata [3]; C. glabrata),FICI of combination resulting in fluconazole MIC of: 8 ug/mL (value in parenthesis) (C. glabrata [3]; C. glabrata),MIC (C. glabrata [3]; [9]) [µg/mL],MIC (C. glabrata [3]; [10]) [µg/mL],Multiple of compound MIC to synergize fluconazole MIC to 2 ug/mL (C. glabrata [3]),Multiple of compound MIC to synergize fluconazole MIC to 4 ug/mL (C. glabrata [3]),Multiple of compound MIC to synergize fluconazole MIC to 8 ug/mL (C. glabrata [3]),Concentration of Methylgene compound to synergize fluconazole MIC to 2 ug/mL (C. glabrata [3]; C. glabrata) [µg/mL],Concentration of Methylgene compound to synergize fluconazole MIC to 4 ug/mL (C. glabrata [3]; C. glabrata) [µg/mL],Concentration of Methylgene compound to synergize fluconazole MIC to 8 ug/mL (C. glabrata [3]; C. glabrata) [µg/mL],further results
"O=C(Cc1ccc(CCC(F)Cc2ccccc2)cc1)NO (stereo not drawn) [Example 60, 2-(4-(3-fluoro-4-phenylbutyl)phenyl)-N-hydroxyacetamide]",4,8,2,2,4,4,0.563,0.625,0.500,0.516,0.531,0.313,2,2,(½x),(½x),(¼x),1,1,0.5,
"O=C(Cc1ccc(C(F)CCCc2ccccc2)cc1)NO (stereo not drawn) [Example 61, 2-(4-(1-fluoro-4-phenylbutyl)phenyl)-N-hydroxyacetamide]",8,16,2,4,4,8,0.313,0.375,0.375,0.266,0.281,0.188,4,4,(¼x),(¼x),(⅛x),1,1,0.5,
"OC(Cn1cncn1)(Cn1cncn1)c1ccc(F)cc1F [Fluconazole, reference compound]",2,4,4,8,0.25,1,,,,,,,,,,,,,,,"MIC of fluconazole alone against both test isolates (C. glabrata [4]): > 64 µg/mL; MIC (C. glabrata [3]; C. glabrata, this study, checkerboard assay, read-out: MIC of fluconazole alone against both test isolates): > 8 µg/mL; MIC range in parentheses below the comparator's MIC, Candida parapsilosis (Candida parapsilosis [5]; 24 hr): 0.5 to 4 µg/mL; MIC range in parentheses below the comparator's MIC, Candida parapsilosis (Candida parapsilosis [5]; 48 hr): 1 to 4 µg/mL; MIC range in parentheses below the comparator's MIC, Candida albicans (Candida albicans [6]): (NA/0.25-1) ug/mL"
